Source: PubChem BioAssay AID1963450 (Molecular Pharmacology Branch, DTP, NCI, 2024)
Values belong to the compound of their own block, whether it stands above or below them.

Tested on: 556581-035-R-J1-PDC complex spheroid growth
Assay: Anticancer human tumor 556581-035-R-J1-PDC patient-derived ovarian carcinoma cell line growth inhibition [Asc]
Details: for IC50: curve of first compound; for viability, T/C: stronger effect = lower value
How it was run: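 Complex solid-tumor spheroids incorporating human endothelial and mesenchymal stem cells received single agents or combinations over half-log dilution ranges anchored to clinical Cmax.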
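Note: spheroids exposed to agents for 7 days before viability read.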

- IC50 (second compound 0.01 µM): 2630 nM
- IC50 (second compound 0.0316 µM): 1880 nM
- IC50 (second compound 0.1 µM): 1500 nM
- IC50 (second compound 0.316 µM): 1070 nM
- IC50 (second compound 1 µM): 1090 nM
Structure (SMILES): C=C(F)C(=O)N1CCN(c2nc(OCC3CCCN3C)nc3c2CCN(c2cccc4cccc(Cl)c24)C3)CC1CC#N (stereo not given) + CNC(C)C(=O)NC1CN(S(=O)(=O)c2cccc(S(=O)(=O)N3CCC4CCC(C(=O)NC(c5ccccc5)c5ccccc5)N4C(=O)C(NC(=O)C(C)NC)C3)c2)CCC2CCC(C(=O)NC(c3ccccc3)c3ccccc3)N2C1=O
- viability, T/C (second compound 0.01 µM, first compound 0.0316 µM): 85.3%
- viability, T/C (second compound 0.01 µM, first compound 0.1 µM): 85%
- viability, T/C (second compound 0.01 µM, first compound 0.316 µM): 83%
- viability, T/C (second compound 0.01 µM, first compound 1 µM): 86.6%
- viability, T/C (second compound 0.01 µM, first compound 3.16 µM): 43.2%
- viability, T/C (second compound 0.01 µM, first compound 10 µM): 0.21%
- viability, T/C (second compound 0.0316 µM, first compound 0.0316 µM): 83.9%
- viability, T/C (second compound 0.0316 µM, first compound 0.1 µM): 86.8%
- viability, T/C (second compound 0.0316 µM, first compound 0.316 µM): 86.5%
- viability, T/C (second compound 0.0316 µM, first compound 1 µM): 72%
- viability, T/C (second compound 0.0316 µM, first compound 3.16 µM): 31.6%
- viability, T/C (second compound 0.0316 µM, first compound 10 µM): 0.18%
- viability, T/C (second compound 0.1 µM, first compound 0.0316 µM): 66.5%
- viability, T/C (second compound 0.1 µM, first compound 0.1 µM): 77.1%
- viability, T/C (second compound 0.1 µM, first compound 0.316 µM): 79.5%
- viability, T/C (second compound 0.1 µM, first compound 1 µM): 58.4%
- viability, T/C (second compound 0.1 µM, first compound 3.16 µM): 29.5%
- viability, T/C (second compound 0.1 µM, first compound 10 µM): 0.17%
- viability, T/C (second compound 0.316 µM, first compound 0.0316 µM): 78.7%
- viability, T/C (second compound 0.316 µM, first compound 0.1 µM): 75.1%
- viability, T/C (second compound 0.316 µM, first compound 0.316 µM): 63.7%
- viability, T/C (second compound 0.316 µM, first compound 1 µM): 56%
- viability, T/C (second compound 0.316 µM, first compound 3.16 µM): 20%
- viability, T/C (second compound 0.316 µM, first compound 10 µM): 1.79%
- viability, T/C (second compound 1 µM, first compound 0.0316 µM): 66.5%
- viability, T/C (second compound 1 µM, first compound 0.1 µM): 62.7%
- viability, T/C (second compound 1 µM, first compound 0.316 µM): 62.3%
- viability, T/C (second compound 1 µM, first compound 1 µM): 52.3%
- viability, T/C (second compound 1 µM, first compound 3.16 µM): 24.4%
- viability, T/C (second compound 1 µM, first compound 10 µM): 2.63%

- IC50 (second compound 0.01 µM): > 3000 nM
- IC50 (second compound 0.0316 µM): > 3000 nM
- IC50 (second compound 0.1 µM): > 3000 nM
- IC50 (second compound 0.316 µM): > 3000 nM
- IC50 (second compound 1 µM): > 3000 nM
Structure (SMILES): CCN1C(C(=O)NC23CCC(C(=O)O)(CC2)CC3)C(c2cccc(Cl)c2F)C2(C(=O)Nc3cc(Cl)ccc32)C12CCCCC2 (stereo not given) + CNC(C)C(=O)NC1CN(S(=O)(=O)c2cccc(S(=O)(=O)N3CCC4CCC(C(=O)NC(c5ccccc5)c5ccccc5)N4C(=O)C(NC(=O)C(C)NC)C3)c2)CCC2CCC(C(=O)NC(c3ccccc3)c3ccccc3)N2C1=O
- viability, T/C (second compound 0.01 µM, first compound 0.00949 µM): 82.8%
- viability, T/C (second compound 0.01 µM, first compound 0.03 µM): 98.8%
- viability, T/C (second compound 0.01 µM, first compound 0.0949 µM): 97.1%
- viability, T/C (second compound 0.01 µM, first compound 0.3 µM): 86.2%
- viability, T/C (second compound 0.01 µM, first compound 0.949 µM): 92.2%
- viability, T/C (second compound 0.01 µM, first compound 3 µM): 86.9%
- viability, T/C (second compound 0.0316 µM, first compound 0.00949 µM): 83.2%
- viability, T/C (second compound 0.0316 µM, first compound 0.03 µM): 85.7%
- viability, T/C (second compound 0.0316 µM, first compound 0.0949 µM): 82.3%
- viability, T/C (second compound 0.0316 µM, first compound 0.3 µM): 87.8%
- viability, T/C (second compound 0.0316 µM, first compound 0.949 µM): 91.2%
- viability, T/C (second compound 0.0316 µM, first compound 3 µM): 102%
- viability, T/C (second compound 0.1 µM, first compound 0.00949 µM): 79%
- viability, T/C (second compound 0.1 µM, first compound 0.03 µM): 88.9%
- viability, T/C (second compound 0.1 µM, first compound 0.0949 µM): 84.3%
- viability, T/C (second compound 0.1 µM, first compound 0.3 µM): 67.7%
- viability, T/C (second compound 0.1 µM, first compound 0.949 µM): 90%
- viability, T/C (second compound 0.1 µM, first compound 3 µM): 90.3%
- viability, T/C (second compound 0.316 µM, first compound 0.00949 µM): 77.1%
- viability, T/C (second compound 0.316 µM, first compound 0.03 µM): 78.9%
- viability, T/C (second compound 0.316 µM, first compound 0.0949 µM): 77.6%
- viability, T/C (second compound 0.316 µM, first compound 0.3 µM): 84.9%
- viability, T/C (second compound 0.316 µM, first compound 0.949 µM): 73.4%
- viability, T/C (second compound 0.316 µM, first compound 3 µM): 69.7%
- viability, T/C (second compound 1 µM, first compound 0.00949 µM): 71.5%
- viability, T/C (second compound 1 µM, first compound 0.03 µM): 72.5%
- viability, T/C (second compound 1 µM, first compound 0.0949 µM): 65.9%
- viability, T/C (second compound 1 µM, first compound 0.3 µM): 68.4%
- viability, T/C (second compound 1 µM, first compound 0.949 µM): 68%
- viability, T/C (second compound 1 µM, first compound 3 µM): 72.4%
